Laboratory results: patent US12384768B2, “Isoxazole carboxylic acids as LPA antagonists” (BRISTOL-MYERS SQUIBB COMPANY, priority 2019, dated 2025)

Columns and labels:
human LPA1 = target: T1, human LPA1 (Homo sapiens, UniProt Q92633); assay: LPA1 functional antagonist assay (calcium flux); format: cell-based; details: CHO cells overexpressing human LPA1; inhibition of calcium flux induced by 10 nM LPA; read-out: hLPA1 IC50
T1 construct: expressed in transfected cells; host or cells: Chinese hamster ovary (CHO) cells
T1 sequence (Q92633 whole entry): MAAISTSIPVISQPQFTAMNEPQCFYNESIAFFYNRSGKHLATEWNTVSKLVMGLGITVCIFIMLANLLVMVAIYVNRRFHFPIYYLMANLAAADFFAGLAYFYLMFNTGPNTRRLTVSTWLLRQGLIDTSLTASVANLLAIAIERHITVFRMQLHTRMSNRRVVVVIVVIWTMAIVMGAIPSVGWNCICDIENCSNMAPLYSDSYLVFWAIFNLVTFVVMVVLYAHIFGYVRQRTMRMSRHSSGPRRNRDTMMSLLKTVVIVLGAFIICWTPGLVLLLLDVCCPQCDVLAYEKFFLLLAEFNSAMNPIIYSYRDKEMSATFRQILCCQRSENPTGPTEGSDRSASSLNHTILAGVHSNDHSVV
Experimental: The effectiveness of compounds of the present invention as LPA1 inhibitors can be determined in an LPA1 functional antagonist assay as follows:
Chinese hamster ovary cells overexpressing human LPA1 were plated overnight (15,000 cells/well) in poly-D-lysine coated 384-well microplates (Greiner bio-one, Cat #781946) in DMEM/F12 medium (Gibco, Cat #11039). Following overnight culture, cells were loaded with calcium indicator dye (AAT Bioquest Inc, Cat #34601) for 30 minutes at 37° C. The cells were then equilibrated to room temperature for 30 minutes before the assay. Test compounds solubilized in DMSO were transferred to 384 well non-binding surface plates (Corning, Cat #3575) using the Labcyte Echo acoustic dispense and diluted with assay buffer [1×HBSS with calcium/magnesium (Gibco Cat #14025-092), 20 mM HEPES (Gibco Cat #15630-080) and 0.1% fatty acid free BSA (Sigma Cat #A9205)] to a final concentration of 0.5% DMSO. Diluted compounds were added to the cells by FDSS6000 (Hamamatsu) at final concentrations ranging from 0.08 nM to 5 μM. and were then incubated for 20 min at room temperature at which time LPA (Avanti Polar Lipids Cat #857130C) was added at final concentrations of 10 nM to stimulate the cells. The compound IC50 value was defined as the concentration of test compound which inhibited 50% of the calcium flux induced by LPA alone. IC50 values were determined by fitting data to a 4-parameter logistic equation (GraphPad Prism, San Diego CA).

IPF patients = details: 26-week clinical trial, IPF patients (Palmer et al.); cited from earlier work
nerve-injured mice = details: pretreatment, nerve-injured mice (Inoue et al.); cited from earlier work
UUO mice = details: cited from earlier work
[1] = system: pancreatic cancer cell lines; details: cited from earlier work
[2] = system: mouse epithelial renal cell line, MCT; details: MCT cells, co-treatment with LPA; cited from earlier work
[3] = system: human foetal lung fibroblasts; details: Tager et al.; cited from earlier work

SMILES | IC50 (human LPA1) [nM] | also measured
Cc1noc(-c2ccc(O[C@H]3CCO[C@H](C(=O)O)C3)cc2)c1COC(=O)N(C)C1CCCC1 (racemic) [Example 5, (±)-trans-4-(4-(4-(((cyclopentyl(methyl)carbamoyl)oxy)methyl)-3-methylisoxazol-5-yl)phenoxy)tetrahydro-2H-pyran-2-carboxylic acid] | 560 | –
Cc1noc(-c2ccc(O[C@H]3CCO[C@@H](C(=O)O)C3)cc2)c1COC(=O)N(C)C1CCCC1 (racemic) [Example 6, (±)-cis-4-(4-(4-(((cyclopentyl(methyl)carbamoyl)oxy)methyl)-3-methylisoxazol-5-yl)phenoxy)tetrahydro-2H-pyran-2-carboxylic acid] | 290 | –
Cc1noc(-c2ccc(OC3CC4C(C3)C4C(=O)O)cc2)c1COC(=O)N(C)CC1CCC1 (racemic) [Example 15, (±)-3-(4-(4-((((Cyclobutylmethyl)(methyl)carbamoyl)oxy)methyl)-3-methyl-isoxazol-5-yl)phenoxy)bicyclo[3.1.0]hexane-6-carboxylic acid] | 563 | –
Cc1noc(-c2ccc(OC3CCCC4C(C(=O)O)C34)cc2)c1COC(=O)N(C)C1CCCC1 (racemic) [Example 17, (±)-2-(4-(4-(((Cyclopentyl(methyl)carbamoyl)oxy)methyl)-3-methylisoxazol-5-yl)phenoxy) bicyclo [4.1.0]heptane-7-carboxylic acid] | 396 | –
Cc1noc(-c2ccc(-c3ccc(C4(C(=O)O)CC4)cc3)cc2)c1NC(=O)O[C@H](C)c1ccccc1 [BMS-986020] | – | rate of FVC (forced vital capacity) decline (IPF patients): significantly reduce
Cc1noc(-c2ccc(O[C@H]3CCO[C@H](C(=O)O)C3)cc2)c1COC(=O)N(C)CCC(C)C [Example 8] | 1100 | –
CCCCN(C)C(=O)OCc1c(C)noc1-c1ccc(OC2CC3C(C2)C3C(=O)O)cc1 (stereo not drawn) [Example 16] | 372 | –
CCCCN(C)C(=O)OCc1c(C)noc1-c1ccc(OC2CCCC3C(C(=O)O)C23)cc1 (stereo not drawn) [Example 18] | 973 | –
Cc1noc(-c2ccc(OC3CCCC4C(C(=O)O)C34)cc2)c1COC(=O)N(C)CC1CCC1 (stereo not drawn) [Example 19] | 1340 | –
Cc1noc(-c2ccc(OC3CCCC4C(C(=O)O)C34)cc2)c1COC(=O)N(C)CC1CC1 (stereo not drawn) [Example 20] | 1520 | –
C[C@@H](N)[C@H]1CC[C@H](C(=O)Nc2ccncc2)CC1 [Example Y-27632] | – | allodynia and hyperalgesia (nerve-injured mice): completely abolished
Cc1noc(-c2ccc(CSCCC(=O)O)cc2)c1NC(=O)OC(C)c1ccccc1Cl (stereo not drawn) [Ki16425] | – | development of renal fibrosis, profile compared with LPA1 (-/-) mice (UUO mice): closely resembled the profile of LPA1 (−/−) mice; LPA-induced and ascites-induced invasion activity ([1]; highly peritoneal metastatic pancreatic cancer cell line): blocked; in vitro migration in response to LPA and peritoneal fluid (ascites) ([1]; pancreatic cancer cell lines (Yamada et al.)): effectively blocked; LPA-induced expression of CTGF [2]: almost completely suppressed; chemotaxis of human foetal lung fibroblasts induced by BAL from IPF patients [3]: blocked

Continued by falling IC50 (human LPA1), values first:

IC50 (human LPA1) [nM] | SMILES | also measured
218 | Cc1noc(-c2ccc(O[C@@H]3COC[C@@H](C(=O)O)C3)cc2)c1COC(=O)N(C)CCC(C)C (racemic) [Example 3] | –
200 | Cc1noc(-c2ccc(O[C@H]3CCO[C@@H](C(=O)O)C3)cc2)c1COC(=O)N(C)CCC(C)C (racemic) [Example 7] | –
197 | Cc1noc(-c2ccc(O[C@@H]3C[C@H](C(=O)O)C[C@H]4C[C@H]43)cc2)c1COC(=O)N(C)C1CCCC1 (racemic) [Example 12, (±)-(1R,3R,5R,6R)-5-(4-(4-(((cyclopentyl(methyl)carbamoyl)oxy)methyl)-3-methylisoxazol-5-yl)phenoxy)bicyclo[4.1.0]heptane-3-carboxylic acid] | –
182 | Cc1noc(-c2ccc(O[C@H]3C[C@H](C(=O)O)C[C@@H]4C[C@@H]43)cc2)c1COC(=O)N(C)C1CCCC1 (racemic) [Example 10, (±)-(1S,3R,5S,6S)-5-(4-(4-(((cyclopentyl(methyl)carbamoyl)oxy)methyl)-3-methyl-isoxazol-5-yl)phenoxy) bicyclo[4.1.0]heptane-3-carboxylic acid] | –
145 | Cc1noc(-c2ccc(O[C@@H]3COC[C@H](C(=O)O)C3)cc2)c1COC(=O)N(C)C1CCCC1 (racemic) [Example 2, (±)-cis-5-(4-(4-(((cyclopentyl(methyl)carbamoyl)oxy)methyl)-3-methyl-isoxazol-5-yl)phenoxy)tetrahydro-2H-pyran-3-carboxylic acid)] | –
140 | Cc1noc(-c2ccc(O[C@H]3COC[C@H](C(=O)O)C3)cc2)c1COC(=O)N(C)C1CCCC1 (racemic) [Example 1, (±)-trans-5-(4-(4-(((cyclopentyl(methyl)carbamoyl)oxy)methyl)-3-methylisoxazol-5-yl)phenoxy)tetrahydro-2H-pyran-3-carboxylic acid)] | –
102 | Cc1noc(-c2ccc(O[C@@H]3COC[C@H](C(=O)O)C3)cc2)c1COC(=O)N(C)CCC(C)C [Example 4] | –
65 | Cc1noc(-c2ccc(OC3CC(C(=O)O)CC4CC43)cc2)c1COC(=O)N(C)C1CCCC1 (racemic) [Example 11, (±)-(1R,3R,5R,6R)-5-(4-(4-(((cyclopentyl(methyl)carbamoyl)oxy)methyl)-3-methylisoxazol-5-yl)phenoxy)bicyclo[4.1.0]heptane-3-carboxylic acid] | –
48 | Cc1noc(-c2ccc(OC3CCC4C(C(=O)O)C34)cc2)c1COC(=O)N(C)C1CCCC1 (racemic) [Example 14, (±)-2-(4-(4-(((Cyclopentyl(methyl)carbamoyl)oxy)methyl)-3-methylisoxazol-5-yl)phenoxy)bicyclo[3.1.0]hexane-6-carboxylic acid] | –
41 | Cc1noc(-c2ccc(O[C@@H]3CCO[C@H](C(=O)O)C3)cc2)c1COC(=O)N(C)CCC(C)C (single isomer, unassigned) [Example 9] | –
22 | CCCCN(C)C(=O)OCc1c(C)noc1-c1ccc(O[C@@H]2C[C@H](C(=O)O)C[C@@H]3C[C@@H]32)cn1 (racemic) [Example 13, (±)-(1S,3R,5R,6S)-5-((6-(4-(((butyl(methyl)carbamoyl)oxy)methyl)-3-methyl-isoxazol-5-yl)pyridin-3-yl)oxy)bicyclo[4.1.0]heptane-3-carboxylic acid] | –
